What is called pIC50 is the IC50 on a negative log10 scale, so that one unit is a factor of ten. A lower pIC50 goes with a high IC50. As usually defined, the pKd is the Kd on a negative log10 scale, so that one unit is a factor of ten. High values mean a small Kd, low ones a large Kd.

pIC50, pKd: −log10 of the molar value.

The source of these data is ChEMBL document CHEMBL1132365, “A multisubstrate adduct inhibitor of AICAR transformylase” (J Med Chem, 1999).

In experiment [1] the target is AICAR transformylase (Lactobacillus casei). As to the kind of experiment: Inhibitory activity against AICAR formyltransferase.
Experiment [2] concerns the target T1, Bifunctional purine biosynthesis protein ATIC (Homo sapiens, UniProt P31939). In words: Inhibitory activity against AICAR formyltransferase.
Experiment [3] deals with T1, Bifunctional purine biosynthesis protein ATIC. In words: Binding affinity towards AICAR formyltransferase.

T1 sequence (P31939 whole entry): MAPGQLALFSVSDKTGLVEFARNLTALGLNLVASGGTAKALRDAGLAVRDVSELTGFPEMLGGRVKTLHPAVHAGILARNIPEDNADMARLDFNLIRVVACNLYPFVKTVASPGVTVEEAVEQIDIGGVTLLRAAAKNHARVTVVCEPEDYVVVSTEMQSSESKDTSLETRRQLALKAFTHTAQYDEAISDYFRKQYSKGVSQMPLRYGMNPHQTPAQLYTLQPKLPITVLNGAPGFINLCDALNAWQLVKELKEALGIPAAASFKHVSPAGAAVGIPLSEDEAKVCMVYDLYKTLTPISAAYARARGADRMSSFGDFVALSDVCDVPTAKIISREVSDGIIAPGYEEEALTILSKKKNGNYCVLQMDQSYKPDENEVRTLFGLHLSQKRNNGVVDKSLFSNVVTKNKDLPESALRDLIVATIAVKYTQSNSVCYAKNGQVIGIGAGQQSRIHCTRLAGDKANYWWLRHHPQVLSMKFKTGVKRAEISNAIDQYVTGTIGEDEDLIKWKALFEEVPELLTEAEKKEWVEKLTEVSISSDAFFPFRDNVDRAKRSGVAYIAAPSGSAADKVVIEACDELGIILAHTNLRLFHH

In turn, `Nc1nc(=O)c2nc(CN(C=O)c3ccc(C(=O)N[C@H](CCC(=O)O)C(=O)O)cc3)ccc2[nH]1` had a pIC50 in experiment [1] of 5.19. Take `NC(=O)c1ncn(C2O[C@H](COP(=O)(O)O)[C@@H](O)[C@H]2O)c1/C=C/C(=O)N(CC1=NC2C(=O)NC(N)=NC2C=C1)c1ccc(C(=O)N[C@@H](CCC(=O)O)C(=O)O)cc1` (stereo partly drawn): the pIC50 in experiment [2] was 6.90. The same molecule gave a pKd in experiment [3] of 7.70.
